Measurements: patent US20210181215A1, “TREATMENT AND DIAGNOSIS OF ANAEMIA” (THE UNIVERSITY COURT OF THE UNIVERSITY OF ABERDEEN, priority 2017, published 2021)
Entries after “also recorded” stand apart in the source; their conditions may differ.

Assays:
[1] = system: untreated RBC uptake by HMDM; test: Efferocytosis assay: uptake of untreated RBC by HMDM; format: cell-based, human; conditions: 3 h assay
Method: (§1) For clear identification of efferocytosis by microscopy, RBC were stained with cell trace far red (CTFR; Molecular Probes) according to manufacturer's instructions. RBC were added to HMDM at 5×10^7 cells per well for three hours before gentle removal and fixation with 4% paraformaldehyde. To identify cells bound but not and ingested by HMDM the cells were stained with anti-glycophorin A/B FITC (HIR2, Biolegend).
(§2) Mannan (10 mg/ml), chitin (50 μg/ml) and laminarin (10 μg/ml; all Sigma Aldrich) were applied for 60 minutes prior to three hour efferocytosis/phagocytosis assay and were not removed.
(§3) Cells were imaged at 32 times magnification using Immuno-Fluorescent Microscope (Zeiss).

[2] = system: oxidised RBC uptake by HMDM; test: Efferocytosis assay: uptake of oxidised RBC by human monocyte derived macrophages; format: cell-based; conditions: RBC oxidised with CuSO4/ascorbic acid, 3 h assay, mannan 10 mg/ml, chitin 50 μg/ml, laminarin 10 μg/ml, anti-CD206 clone 15.2 10 μg/ml applied 60 min before, siRNA against MRC-1
Method: RBC and SHSy5y neuronal cells were incubated with copper sulphate (CuSO4, 0.2 mM) and ascorbic acid (5 mM) for 60 minutes (RBC) or 30 minutes (SHSy5y) at 37° C. in DMEM with 4.5 g/L glucose. Cells were then washed in PBS three times prior to assays.
as §1
(§4) Ligand binding of CD206 was blocked with antibody clone 15.2 (10 μg/ml; BioLegend) by adding antibody or isotype control (10 μg/ml mouse IgG1 kappa clone 107.3, BD Biosciences) for 60 minutes prior to three hour efferocytosis assay and were not removed.
as §2, §3
To access percentage MR positive spindle/small round macrophages, anti-MR antibody (unlabelled clone 19.2) was stained with anti-mouse PE secondary antibody. Only spindle/small round macrophage population was examined as this is the subpopulation that expresses MR in wild type macrophages. SiRNA ([…], antisense, concentration Life Technologies) against mannose receptor (MRC-1) in humans was transfected into primary macrophages (RNAiMax, Life Technologies). (n=4 donors for all SiRNA experiments. Autologous red blood cells were used with macrophages.) Mannose receptor expression was established by microscopy using MR-Alexa-488 staining (described above) in the small non-granular macrophage sub-population by merging bright field and mannose receptor fluorescence staining.

[3] = molecular target: T1, Galanthus nivalis lectin (GNA) (Galanthus nivalis, UniProt P30617); test: Flow cytometry blockade of GNA lectin binding to the RBC surface; conditions: oxidised / SCD RBC; lectin pre-incubated with mannan 5 mg/ml for 15 min
T1 construct: purchased Vector Laboratories B1245
T1 sequence (P30617 24-128 limits assumed): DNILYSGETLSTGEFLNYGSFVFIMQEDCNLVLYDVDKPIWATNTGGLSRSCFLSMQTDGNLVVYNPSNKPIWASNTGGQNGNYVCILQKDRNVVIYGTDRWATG
Method: RBC, approximately 5×10^6 per test, were washed three times in PBS, and then incubated in calcium buffer with biotinylated GNA (4 μg/ml, Vector Laboratories, B1245) or in PBS for PNA-FITC (2 μg/ml Sigma Aldrich L7381) for 30 minutes in calcium buffer at room temperature (protected from light). Cells were then washed and incubated with streptavidin PE-Cy7 (0.27 μg/ml; eBioscience) or PE (0.67 μg/ml; BD Pharmingen) for 30 min at room temperature. Cells were washed and analysed.
(§5) For blockade testing, Lectin or FC fusion were pre-incubated with mannan (5 mg/ml, unless otherwise stated) for 15 minutes at room temperature. Mixture of mannan and Lectin or FC fusion was then incubated with washed RBC and compared to binding of Lectin or FC fusion without mannan.
(§6) Samples were acquired on FACSCalibur (BD) and analysed using FlowJo v10.0 (Treestar) software. The normalised geomean was calculated by subtracting the geomean of the secondary only paired controls. For PNA-FITC analysis, normalised geomean was calculated by subtracting geomean of unstained RBC (PBS incubation) control.

[4] = system: uptake of RBC from patients with SCD (HbSS) by HMDM; test: Efferocytosis assay: uptake of RBC from patients with SCD by HMDM; format: cell-based, human; conditions: 3 h assay, mannan 10 mg/ml, chitin 50 μg/ml, anti-CD206 10 μg/ml
Method: as §1, §4, §2, §3

[5] = system: phagocytosis of beads by HMDM; test: Bead phagocytosis assay with HMDM (control); format: cell-based, human; conditions: 3 h
Method: Coumarin stained Fluoresbrite microparticles (8 μm; Polysciences, Inc.) were added to HMDM at 5×107 beads per well for three hours before gentle removal and suspension in PBS for immediate imaging.
as §4, §2, §3

[6] = system: carbohydrate binding domain of the mannose receptor CD206 (MR-CRD); test: Flow cytometry blockade of MR-CRD (CD206 carbohydrate binding domain, Fc fusion) staining of oxidised RBC; set-up: species or system murine; conditions: FC fusion pre-incubated with mannan 5 mg/ml
carbohydrate binding domain of the mannose receptor CD206 (MR-CRD), sequence (Q61830 645-781 limits assumed): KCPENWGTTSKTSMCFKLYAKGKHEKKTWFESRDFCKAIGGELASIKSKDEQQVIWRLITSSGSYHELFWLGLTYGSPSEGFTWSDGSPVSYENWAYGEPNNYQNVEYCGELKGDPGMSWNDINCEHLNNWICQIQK
Method: Humanised FC fusions of murine C-type lectins (5 μg/ml, kind gift from Gordon Brown, Screening for Ligands of C-Type Lectin-Like Receptors, Elwira PyżGordon D. Brown, 2011) were incubated with RBC for 30 minutes at room temperature in calcium buffer then detected by Alexa Fluor 647 goat anti-human secondary antibody (2 μg/ml, 109-605-098, Jackson ImmunoResearch Laboratories) incubated for 30 minutes at room temperature.
as §5, §6

Row | Substance | uptake of untreated RBC by HMDM [1] | uptake (efferocytosis) of oxidised RBC by HMDM [2] | blockade of GNA binding to RBC surface (FACS) [3] | uptake of RBC from patients with SCD by HMDM [4] | phagocytosis of control beads by HMDM [5] | blockade of MR-CRD staining of oxidised RBC (FACS) [6] | uptake (efferocytosis) of oxidised RBC by HMDM ([2]; listed as Mannan)
1 | chitin | not untreated | significantly inhibited; also recorded: abrogated | inhibitable | significantly inhibited; also recorded: blocked |  |  | 
2 | laminarin |  | not laminarin, significantly inhibited |  |  |  |  | 
3 | mannan | not untreated | significantly inhibited; also recorded: abrogated | effective blockade; also recorded: inhibitable | significantly inhibited; also recorded: blocked | no effect | effective blockade | significantly blocked uptake
